# Where two headings read alike, the source gives them in different places.
# Tests used:
# [1] = Rat pharmacokinetics, oral gavage; type: in vivo, Sprague-Dawley rats; set-up: AUClast/D: unit not given here; conditions: for MRT inf: read-out: MRTInf—obs; for Tmax: read-out: Tmax
# Experimental: Groups, Dosing, and Collection. […] Three rats per group were perorally administered 20, 60, or 200 mg Compound 1 free acid or 25, 75, or 250 mg in 0.5% methylcellulose in Saline for a final concentration of 2, 6, or 20 mg/mL Compound 1 free acid or 2.5, 7.5, or […]. Plasma was collected at 5 min, 15 min, 30 min, 1 hour, 2 hour, 4 hour, 6 hour, 8 hour, and 24 hour post dose via jugular vein.
# Stock and Dose Prep. Stock solutions were prepared by dissolving 2.47 mg of Compound 1 (free acid) in 2.470 mL DMSO with vortexing to obtain 1 mg/mL solution of Compound 1 (free acid), or 2.09 mg of Compound 1 (Tris salt) in […] DMSO with vortexing to obtain 1 mg/mL solution of Compound 1 (Tris salt). Dosing solutions were prepared by vortexing/sonicating the following solids in solvent:
# LC MS-MS Analysis. Liquid Chromatography with tandem mass spectrometry was used to determine plasma concentrations of Compound 1 Free Acid and Compound 1 Tris Salt in plasma samples collected at prescribed time points.
# Appropriate serial concentrations of working solutions were achieved by diluting stock solution of analyte with 50% acetonitrile in water solution. Five μL of working solutions (10, 20, 50, 100, 500, 1000, 5000, 8000, 10000 ng/mL) were added to 50 μL of the blank male SD Rat plasma to achieve calibration standards of 1˜1000 ng/ml (1, 2, 5, 10, 50, 100, 500, 800, 1000 ng/mL) in a total volume of 55 μL. Five quality control (QC) samples at 2 ng/mL, 5 ng/mL, 10 ng/mL, 50 ng/mL and 800 ng/mL for plasma were prepared independently of those used for the calibration curves. These QC samples were prepared on the day of analysis in the same way as calibration standards. 55 μL standards, 55 μL QC samples and 55 μL unknown samples (50 μL plasma/blood with 5 μL blank solution) were added to 200 μL of methanol containing internal standard (dexamethasone) mixture for precipitating protein respectively, and vortexed for 30 seconds. After centrifugation at 4° C. and 4000 rpm for 15 minutes. The supernatant was diluted with water with a ratio of 1:2. 2 μL of the supernatant was injected into the LC/MS/MS system for quantitative analysis.
# Instrumentation included HALO 90A C18 2.7 μm 2.1×50 mm HPLC column, a Prominence degasser DGU-20A5R(C), liquid chromatograph Shimadzu LC-30AD with communications bus module CBM-20A and Auto SIL-20AC HT; and an AB Sciex Triple Quad 5500 LC/MS/MS instrument.
# in vivo = assay: in vivo; set-up: species or system beagle dogs; conditions: both sexes, beagle, dog
# Experimental: Compound 1 was administered to beagle dogs by oral gavage in a range finding study at doses of 30, 79, 240, or 790 mg/kg. […] Compound 1 was administered at doses of 10, 50, and 150 mg/kg/day in the pivotal repeat dose toxicity studies for 28 days.
# (§1) Compound 1 tris salt was evaluated for safety in 7- and 28-day studies in rats and dogs. […] The NOAELs for this rat study were 120 mg/kg/day for males and 75 mg/kg/day for females. […] The NOAEL determined in the 28-day dog GLP study was 150 mg/kg/day. These correspond to human equivalent doses (HEDs) of: • Rat: 75 mg/kg×0.16=12 mg/kg • Dog: 150 mg/kg×0.54=81 mg/kg
# [2] = 28-day repeat-dose toxicity study in rats; type: in vivo; conditions: Sprague Dawley, rat; for NOAEL at 28 days: in vivo; for AUC(0-t) / Cmax: plasma; for AUC(0-t): read-out: AUC0-24 at NOAEL; for Cmax: read-out: Cmax at NOAEL
# Experimental: Compound 1 was administered to Sprague Dawley rats by oral gavage at doses of 25, 75, and 250 mg/kg/day (females) and 40, 120, and 400 mg/kg/day (males) for 28 days. Compound 1-related mortality occurred in 8 of the 15 toxicity males administered 400 mg/kg/day beginning on Day 8 through 24. […] Target tissues included bone marrow, spleen, thymus, liver, lymph nodes, epididymides, seminal vesicles, prostate, testes, uterus, and ovaries.
# as §1
# [3] = Sprague-Dawley, plasma, rat PO 20 mg/kg, female, mean
# [4] = Sprague-Dawley, plasma, rat PO 20 mg/kg, male, mean
# [5] = Sprague-Dawley, plasma, rat PO 60 mg/kg, female, mean
# [6] = Sprague-Dawley, plasma, rat PO 60 mg/kg, male, mean
# [7] = Sprague-Dawley, plasma, rat PO 200 mg/kg, female, mean
# [8] = Sprague-Dawley, plasma, rat PO 200 mg/kg, male, mean
structure (smiles),measurement,setting,value
"CC(C)(OCc1cc(-c2cccc(OC3CCC3)c2)n(-c2ccccc2N2CCC2)n1)C(=O)O [Compound 1, 2-((1-(2-(azetidin-1-yl)phenyl)-5-(3-cyclobutoxyphenyl)-1H-pyrazol-3-yl)methoxy)-2-methylpropanoic acid]",AUC(0-inf),[1]; [3],991 µg·h/mL
same,half-life,[1]; [3],7 h
same,MRT inf,[1]; [3],10 h
same,AUC(0-inf),[1]; [4],168 µg·h/mL
same,half-life,[1]; [4],3.27 h
same,MRT inf,[1]; [4],4.54 h
same,AUC(0-inf),[1]; [5],1770 µg·h/mL
same,half-life,[1]; [5],9.1 h
same,MRT inf,[1]; [5],13.6 h
same,AUC(0-inf),[1]; [6],447 µg·h/mL
same,half-life,[1]; [6],2.92 h
same,MRT inf,[1]; [6],5.33 h
same,AUC(0-inf),[1]; [7],3820 µg·h/mL
same,half-life,[1]; [7],10.4 h
same,MRT inf,[1]; [7],15.9 h
same,AUC(0-inf),[1]; [8],1110 µg·h/mL
same,half-life,[1]; [8],3.14 h
same,MRT inf,[1]; [8],6.01 h
same,AUC(0-t),"[1]; female, Sprague-Dawley, rat, plasma, po, 20 mg/kg, rat PO 20 mg/kg, female, mean, read-out: AUClast",885 µg·h/mL
same,Cmax,"[1]; female, Sprague-Dawley, rat, plasma, po, 20 mg/kg, rat PO 20 mg/kg, female, mean, read-out: Cmax",78.9 µg/mL
same,Tmax,"[1]; female, Sprague-Dawley, rat, plasma, po, 20 mg/kg, rat PO 20 mg/kg, female, mean",2.67 h
same,AUC(0-t),"[1]; female, Sprague-Dawley, rat, plasma, po, 20 mg/kg, rat, Female, PO/20 mg/kg, Mean ± SD, read-out: AUC0-24",885 µg·h/mL
same,Cmax,"[1]; female, Sprague-Dawley, rat, plasma, po, 20 mg/kg, rat, Female, PO/20 mg/kg, Mean ± SD, read-out: Cmax",78.8 µg/mL
same,AUC(0-t),"[1]; female, Sprague-Dawley, rat, plasma, po, 60 mg/kg, rat PO 60 mg/kg, female, mean, read-out: AUClast",1430 µg·h/mL
same,Cmax,"[1]; female, Sprague-Dawley, rat, plasma, po, 60 mg/kg, rat PO 60 mg/kg, female, mean, read-out: Cmax",113 µg/mL
same,Tmax,"[1]; female, Sprague-Dawley, rat, plasma, po, 60 mg/kg, rat PO 60 mg/kg, female, mean",4.67 h
same,AUC(0-t),"[1]; female, Sprague-Dawley, rat, plasma, po, 60 mg/kg, rat, Female, PO/60 mg/kg, Mean ± SD, read-out: AUC0-24",1430 µg·h/mL
same,Cmax,"[1]; female, Sprague-Dawley, rat, plasma, po, 60 mg/kg, rat, Female, PO/60 mg/kg, Mean ± SD, read-out: Cmax",113 µg/mL
same,Tmax,"[1]; female, Sprague-Dawley, rat, plasma, po, 60 mg/kg, rat, Female, PO/60 mg/kg, Mean ± SD",4.7 ± 2.3 h
same,AUC(0-t),"[1]; female, Sprague-Dawley, rat, plasma, po, 200 mg/kg, rat PO 200 mg/kg, female, mean, read-out: AUClast",2850 µg·h/mL
same,Cmax,"[1]; female, Sprague-Dawley, rat, plasma, po, 200 mg/kg, rat PO 200 mg/kg, female, mean, read-out: Cmax",206 µg/mL
same,Tmax,"[1]; female, Sprague-Dawley, rat, plasma, po, 200 mg/kg, rat PO 200 mg/kg, female, mean",4.67 h
same,AUC(0-t),"[1]; female, Sprague-Dawley, rat, plasma, po, 200 mg/kg, rat, Female, PO/200 mg/kg, Mean ± SD, read-out: AUC0-24",2850 µg·h/mL
same,Cmax,"[1]; female, Sprague-Dawley, rat, plasma, po, 200 mg/kg, rat, Female, PO/200 mg/kg, Mean ± SD, read-out: Cmax",206 µg/mL
same,Tmax,"[1]; female, Sprague-Dawley, rat, plasma, po, 200 mg/kg, rat, Female, PO/200 mg/kg, Mean ± SD",4.7 ± 1.1 h
same,AUC(0-t),"[1]; male, Sprague-Dawley, rat, plasma, po, 20 mg/kg, rat PO 20 mg/kg, male, mean, read-out: AUClast",167 µg·h/mL
same,Cmax,"[1]; male, Sprague-Dawley, rat, plasma, po, 20 mg/kg, rat PO 20 mg/kg, male, mean, read-out: Cmax",30.6 µg/mL
same,Tmax,"[1]; male, Sprague-Dawley, rat, plasma, po, 20 mg/kg, rat PO 20 mg/kg, male, mean",1 h
same,AUC(0-t),"[1]; male, Sprague-Dawley, rat, plasma, po, 20 mg/kg, rat, Male, PO/20 mg/kg, Mean ± SD, read-out: AUC0-24",167 µg·h/mL
same,Cmax,"[1]; male, Sprague-Dawley, rat, plasma, po, 20 mg/kg, rat, Male, PO/20 mg/kg, Mean ± SD, read-out: Cmax",30.6 µg/mL
same,Tmax,"[1]; male, Sprague-Dawley, rat, plasma, po, 20 mg/kg, rat, Male, PO/20 mg/kg, Mean ± SD",1 h
same,AUC(0-t),"[1]; male, Sprague-Dawley, rat, plasma, po, 60 mg/kg, rat PO 60 mg/kg, male, mean, read-out: AUClast",445 µg·h/mL
same,Cmax,"[1]; male, Sprague-Dawley, rat, plasma, po, 60 mg/kg, rat PO 60 mg/kg, male, mean, read-out: Cmax",56.5 µg/mL
same,Tmax,"[1]; male, Sprague-Dawley, rat, plasma, po, 60 mg/kg, rat PO 60 mg/kg, male, mean",2.67 h
same,AUC(0-t),"[1]; male, Sprague-Dawley, rat, plasma, po, 60 mg/kg, rat, Male, PO/60 mg/kg, Mean ± SD, read-out: AUC0-24",445 µg·h/mL
same,Cmax,"[1]; male, Sprague-Dawley, rat, plasma, po, 60 mg/kg, rat, Male, PO/60 mg/kg, Mean ± SD, read-out: Cmax",56.5 µg/mL
same,Tmax,"[1]; male, Sprague-Dawley, rat, plasma, po, 60 mg/kg, rat, Male, PO/60 mg/kg, Mean ± SD",2.7 ± 1.2 h
same,AUC(0-t),"[1]; male, Sprague-Dawley, rat, plasma, po, 200 mg/kg, rat PO 200 mg/kg, male, mean, read-out: AUClast",1100 µg·h/mL
same,Cmax,"[1]; male, Sprague-Dawley, rat, plasma, po, 200 mg/kg, rat PO 200 mg/kg, male, mean, read-out: Cmax",115 µg/mL
same,Tmax,"[1]; male, Sprague-Dawley, rat, plasma, po, 200 mg/kg, rat PO 200 mg/kg, male, mean",4 h
same,AUC(0-t),"[1]; male, Sprague-Dawley, rat, plasma, po, 200 mg/kg, rat, Male, PO/200 mg/kg, Mean ± SD, read-out: AUC0-24",1100 µg·h/mL
same,Cmax,"[1]; male, Sprague-Dawley, rat, plasma, po, 200 mg/kg, rat, Male, PO/200 mg/kg, Mean ± SD, read-out: Cmax",115 µg/mL
same,Tmax,"[1]; male, Sprague-Dawley, rat, plasma, po, 200 mg/kg, rat, Male, PO/200 mg/kg, Mean ± SD",4 ± 2 h
same,AUClast/D,"[1]; rat PO 20 mg/kg, female, mean",44231
same,AUC—% Extrap—obs,"[1]; rat PO 20 mg/kg, female, mean",9.9%
same,Cmax,"[1]; rat PO 20 mg/kg, female, mean, listed as Free Acid, 20 mg/kg",78.833 µg/mL
same,AUC—% Extrap—obs,"[1]; rat PO 20 mg/kg, male, mean",0.61%
same,AUClast/D,"[1]; rat PO 60 mg/kg, female, mean",23759
same,AUC—% Extrap—obs,"[1]; rat PO 60 mg/kg, female, mean",16.7%
same,AUClast/D,"[1]; rat PO 60 mg/kg, male, mean",7419
same,AUC—% Extrap—obs,"[1]; rat PO 60 mg/kg, male, mean",0.477%
same,AUClast/D,"[1]; rat PO 200 mg/kg, female, mean",14265
same,AUC—% Extrap—obs,"[1]; rat PO 200 mg/kg, female, mean",22.1%
same,AUClast/D,"[1]; rat PO 200 mg/kg, male, mean",5525
same,AUC—% Extrap—obs,"[1]; rat PO 200 mg/kg, male, mean",0.704%
same,Clinical symptoms,"[1]; rats, single oral gavage dose",No abnormal clinical symptoms were observed
same,NOAEL at 28 days,in vivo,150 mg/kg/day
same,NOAEL at 28 days,"[2]; male rats, 28 days oral gavage, read-out: NOAEL",120 mg/kg/day
same,AUC(0-t),"[2]; po, female rats, 75 mg/kg/day",3230 µg·h/mL
same,Cmax,"[2]; po, female rats, 75 mg/kg/day",198 µg/mL
same,AUC(0-t),"[2]; po, male rats, 120 mg/kg/day",2780 µg·h/mL
same,Cmax,"[2]; po, male rats, 120 mg/kg/day",180 µg/mL
same,NOAEL at 28 days,"[2]; female, po",75 mg/kg/day
